Measured values: ChEMBL document CHEMBL3885861, “Open TG-GATES”

Species: Rattus norvegicus
Experiment: Open TG-GATES - Regimen: Single
Type: toxicity, organism-based, Sprague-Dawley
Set-up: regimen Single, gender Male, age 6 weeks
Conditions: in vivo, po, 50 mg/kg, route gavage, dose level Middle; for APTT / Bas / Eos / Fbg / Hb / Ht / Lym / MCH / MCHC / MCV / Mono / Neu / PT / Plat / RBC / Ret / WBC: tissue Blood; for KIDNEY_L / KIDNEY_R / KIDNEY_TOTAL: tissue Kidney; for LIVER: tissue Liver; for A/G / ALP / ALT / AST / BUN / CRE / Ca / Cl / DBIL / GLC / IP / K / LDH / Na / PL / RALB / TBIL / TC / TG / TP / gamma-GTP: tissue Plasma

SMILES: O=c1ccc2ccccc2o1 [COUMARIN]
- TERMINAL_BW (3 h): 184.1 g
- APTT (3 h): 16.3 s
- Bas (3 h): 0%
- Eos (3 h): 0.6%
- Fbg (3 h): 198 mg/dL
- Hb (3 h): 13.4 g/dL
- Ht (3 h): 40.4%
- Lym (3 h): 81.4%
- MCH (3 h): 21.9 pg
- MCHC (3 h): 33.2%
- MCV (3 h): 65.9 fL
- Mono (3 h): 4%
- Neu (3 h): 14.2%
- PT (3 h): 12.7 s
- Plat (3 h): 114.8 x10_4/uL
- RBC (3 h): 613.6 x10_4/ul
- Ret (3 h): 9.3%
- WBC (3 h): 104.2 x10_2/uL
- KIDNEY_L (3 h): 0.9 g
- KIDNEY_R (3 h): 0.9 g
- KIDNEY_TOTAL (3 h): 1.7 g
- LIVER (3 h): 8.1 g
- A/G (3 h): 2.3
- ALP (3 h): 989.4 IU/L
- ALT (3 h): 39.4 IU/L
- AST (3 h): 68 IU/L
- BUN (3 h): 12 mg/dL
- CRE (3 h): 0.5 mg/dL
- Ca (3 h): 10.7 mg/dL
- Cl (3 h): 103.2 meq/L
- DBIL (3 h): 0.032 mg/dL
- GLC (3 h): 191.4 mg/dL
- IP (3 h): 10.4 mg/dL
- K (3 h): 4.7 meq/L
- LDH (3 h): 74.4 IU/L
- Na (3 h): 138 meq/L
- PL (3 h): 141 mg/dL
- RALB (3 h): 3.8 g/dL
- TBIL (3 h): 0.3 mg/dL
- TC (3 h): 76.4 mg/dL
- TG (3 h): 49.8 mg/dL
- TP (3 h): 5.5 g/dL
- gamma-GTP (3 h): 1 IU/L
- TERMINAL_BW (6 h): 180.4 g
- APTT (6 h): 16.5 s
- Bas (6 h): 0%
- Eos (6 h): 0.8%
- Fbg (6 h): 210.2 mg/dL
- Hb (6 h): 13.5 g/dL
- Ht (6 h): 40.4%
- Lym (6 h): 79.8%
- MCH (6 h): 21.7 pg
- MCHC (6 h): 33.3%
- MCV (6 h): 65 fL
- Mono (6 h): 5.8%
- Neu (6 h): 13.8%
- PT (6 h): 12.8 s
- Plat (6 h): 104.8 x10_4/uL
- RBC (6 h): 620.8 x10_4/ul
- Ret (6 h): 9.7%
- WBC (6 h): 103 x10_2/uL
- KIDNEY_L (6 h): 0.8 g
- KIDNEY_R (6 h): 0.9 g
- KIDNEY_TOTAL (6 h): 1.7 g
- LIVER (6 h): 7.7 g
- A/G (6 h): 2.1
- ALP (6 h): 1018 IU/L
- ALT (6 h): 37.2 IU/L
- AST (6 h): 70 IU/L
- BUN (6 h): 11.4 mg/dL
- CRE (6 h): 0.5 mg/dL
- Ca (6 h): 10.4 mg/dL
- Cl (6 h): 106 meq/L
- DBIL (6 h): 0.004 mg/dL
- GLC (6 h): 183 mg/dL
- IP (6 h): 10.2 mg/dL
- K (6 h): 5 meq/L
- LDH (6 h): 98.6 IU/L
- Na (6 h): 138.4 meq/L
- PL (6 h): 155.6 mg/dL
- RALB (6 h): 3.7 g/dL
- TBIL (6 h): 0.3 mg/dL
- TC (6 h): 89 mg/dL
- TG (6 h): 62.4 mg/dL
- TP (6 h): 5.6 g/dL
- gamma-GTP (6 h): 1.4 IU/L
- TERMINAL_BW (9 h): 175.7 g
- APTT (9 h): 16.7 s
- Bas (9 h): 0%
- Eos (9 h): 0.6%
- Fbg (9 h): 186.4 mg/dL
- Hb (9 h): 13.3 g/dL
- Ht (9 h): 40.2%
- Lym (9 h): 77.6%
- MCH (9 h): 22.1 pg
- MCHC (9 h): 33.2%
- MCV (9 h): 66.6 fL
- Mono (9 h): 6.2%
- Neu (9 h): 15.6%
- PT (9 h): 13 s
- Plat (9 h): 102.3 x10_4/uL
- RBC (9 h): 606 x10_4/ul
- Ret (9 h): 9.6%
- WBC (9 h): 95.4 x10_2/uL
- KIDNEY_L (9 h): 0.8 g
- KIDNEY_R (9 h): 0.8 g
- KIDNEY_TOTAL (9 h): 1.7 g
- LIVER (9 h): 7.2 g
- A/G (9 h): 2.1
- ALP (9 h): 1020.8 IU/L
- ALT (9 h): 38.6 IU/L
- AST (9 h): 74.2 IU/L
- BUN (9 h): 11.4 mg/dL
- CRE (9 h): 0.5 mg/dL
- Ca (9 h): 11.1 mg/dL
- Cl (9 h): 106 meq/L
- DBIL (9 h): 0.052 mg/dL
- GLC (9 h): 189.6 mg/dL
- IP (9 h): 10.7 mg/dL
- K (9 h): 5.1 meq/L
- LDH (9 h): 104.6 IU/L
- Na (9 h): 139 meq/L
- PL (9 h): 141.4 mg/dL
- RALB (9 h): 3.7 g/dL
- TBIL (9 h): 0.3 mg/dL
- TC (9 h): 79.4 mg/dL
- TG (9 h): 63 mg/dL
- TP (9 h): 5.5 g/dL
- gamma-GTP (9 h): 1 IU/L
- TERMINAL_BW (24 h): 189.1 g
- APTT (24 h): 15.5 s
- Bas (24 h): 0%
- Eos (24 h): 1.6%
- Fbg (24 h): 192 mg/dL
- Hb (24 h): 13.4 g/dL
- Ht (24 h): 40.2%
- Lym (24 h): 76.4%
- MCH (24 h): 22 pg
- MCHC (24 h): 33.4%
- MCV (24 h): 66 fL
- Mono (24 h): 11.4%
- Neu (24 h): 11.2%
- PT (24 h): 12.4 s
- Plat (24 h): 110.8 x10_4/uL
- RBC (24 h): 609 x10_4/ul
- Ret (24 h): 8.4%
- WBC (24 h): 100 x10_2/uL
- KIDNEY_L (24 h): 0.9 g
- KIDNEY_R (24 h): 0.9 g
- KIDNEY_TOTAL (24 h): 1.8 g
- LIVER (24 h): 9.4 g
- A/G (24 h): 2.3
- ALP (24 h): 978.2 IU/L
- ALT (24 h): 48 IU/L
- AST (24 h): 74.6 IU/L
- BUN (24 h): 15 mg/dL
- CRE (24 h): 0.6 mg/dL
- Ca (24 h): 10.9 mg/dL
- Cl (24 h): 105.8 meq/L
- DBIL (24 h): 0.012 mg/dL
- GLC (24 h): 186.8 mg/dL
- IP (24 h): 8 mg/dL
- K (24 h): 5.1 meq/L
- LDH (24 h): 113 IU/L
- Na (24 h): 138.2 meq/L
- PL (24 h): 140.2 mg/dL
- RALB (24 h): 3.8 g/dL
- TBIL (24 h): 0.3 mg/dL
- TC (24 h): 77 mg/dL
- TG (24 h): 66.6 mg/dL
- TP (24 h): 5.5 g/dL
- gamma-GTP (24 h): 1.2 IU/L
